In ChEMBL document CHEMBL3745602, “Design, synthesis and in vivo screening of some novel quinazoline analogs as anti-hyperlipidemic and hypoglycemic agents” (2016) one finds Activity and Ratio data, which are given here for 9 compounds.

Holding throughout (format): functional
In assay [1] the test system is Rattus norvegicus. As to the kind of experiment: Hypolipidemic activity in high fat-induced hyperlipidemic Sprague-Dawley rat assessed as VLDL level at 250 mg/kg, po dosed for last 7 days during 30 day high-fat diet feeding schedule (reference value: 23.48+/- 0.78 mg/dl).
For assay [2], the system named is Rattus norvegicus. As to the kind of experiment: Effect on body weight in Sprague-Dawley rat at 250 mg/kg, po dosed for last 7 days during 30 day high-fat diet feeding schedule measured every 5th day (reference value: 207.67 +/- 1.2 g).
In assay [3] the test system is Rattus norvegicus. As to the kind of experiment: Hypolipidemic activity in high fat-induced hyperlipidemic Sprague-Dawley rat assessed as LDL level at 250 mg/kg, po dosed for last 7 days during 30 day high-fat diet feeding schedule (reference value: 22.42 +/- 0.41 mg/dl).
Assay [4] has as its system Rattus norvegicus. In words: Hypolipidemic activity in high fat-induced hyperlipidemic Sprague-Dawley rat assessed as triglyceride level at 250 mg/kg, po dosed for last 7 days during 30 day high-fat diet feeding schedule (reference value: 74.3+/- 0.48 mg/dl).
In assay [5] the test system is Rattus norvegicus. In words: Hypolipidemic activity in high fat-induced hyperlipidemic Sprague-Dawley rat assessed as HDL level at 250 mg/kg, po dosed for last 7 days during 30 day high-fat diet feeding schedule (reference value: 37.5 +/- 0.96 mg/dl).
Assay [6] concerns Rattus norvegicus. In words: Hypolipidemic activity in high fat-induced hyperlipidemic Sprague-Dawley rat assessed as cholesterol level at 250 mg/kg, po dosed for last 7 days during 30 day high-fat diet feeding schedule (reference value: 70.8 +/- 0.5 mg/dl).
The subject of assay [7] is Rattus norvegicus. As to the kind of experiment: Hypolipidemic activity in high fat-induced hyperlipidemic Sprague-Dawley rat assessed as ratio of cholesterol level to HDL level at 250 mg/kg, po dosed for last 7 days during 30 day high-fat diet feeding schedule (reference value: 1.88 +/- 0.05).
Assay [8] concerns Rattus norvegicus. In words: Hypoglycemic activity in Sprague-Dawley rat assessed as blood glucose level at 250 mg/kg, po dosed for last 7 days during 30 day high-fat diet feeding schedule (reference value: 63.70 +/- 0.7 mg/dl).

With `CC(C)OC(=O)C(C)(C)Oc1ccc(C(=O)c2ccc(Cl)cc2)cc1` [FENOFIBRATE], the Activity in assay [1] was determined as 37 mg/dL; in assay [2] it was 269 g; in assay [3] it was 54.66 mg/dL; in assay [4] it was 125.3 mg/dL; in assay [5] it was 34.38 mg/dL; in assay [6], 85.4 mg/dL. In addition, in assay [8], the Activity worked out at 86.41 mg/dL. Also, in assay [7], the Ratio stood at 2.49.

For the compound `CC(C)(Oc1ccc(-n2c(-c3ccccc3)nc3ccccc3c2=O)cc1)C(=O)O`, the Activity in assay [1] amounted to 24.3 mg/dL; in assay [2], 284.5 g; in assay [3] it was 64.33 mg/dL; in assay [4], 158 mg/dL; in assay [5], 31.6 mg/dL; in assay [6] it was 97.5 mg/dL. Besides, in assay [8], the Activity was found to be 114.8 mg/dL. The Ratio in assay [7] stood at 3.11.

As for `Cc1nc2ccccc2c(=O)n1-c1ccc(OC(C)(C)C(=O)O)cc1`, the Activity in assay [1] was determined as 37.05 mg/dL; in assay [2], 272.17 g; in assay [3], 44.66 mg/dL; in assay [4], 154.1 mg/dL; in assay [5], 40 mg/dL; in assay [6], 93 mg/dL. Besides, in assay [8], the Activity worked out at 89.19 mg/dL. Besides, the Ratio in assay [7] is given as 2.32.

Consider `CC1N(c2ccc(OC(C)(C)C(=O)O)cc2)C(=O)c2ccccc2N1c1ccccc1` (configuration not stated), for which the Activity is 22.05 mg/dL in assay [1]; 277.3 g in assay [2]; 54.78 mg/dL in assay [3]; 154.8 mg/dL in assay [4]; 25.5 mg/dL in assay [5]; 106.4 mg/dL in assay [6]. For the same compound, in assay [8], the Activity turned out to be 115 mg/dL. Besides, in assay [7], the Ratio is recorded as 4.15.

Turning to `O=C(O)COc1ccc(-n2c(-c3ccccc3)nc3ccccc3c2=O)cc1`, the Activity in assay [1] came out at 28.16 mg/dL; in assay [2], 281.2 g; in assay [3], 57.22 mg/dL; in assay [4], 144.8 mg/dL; in assay [5] it was 33.7 mg/dL; in assay [6], 110.8 mg/dL. Also, in assay [8], the Activity was 112.8 mg/dL. The Ratio in assay [7] stood at 3.26.

As for `Cc1nc2cc(O)ccc2c(=O)n1-c1ccc(OC(C)(C)C(=O)O)cc1`, the Activity is 35.38 mg/dL in assay [1]; 260.1 g in assay [2]; 35.81 mg/dL in assay [3]; 114.8 mg/dL in assay [4]; 40.8 mg/dL in assay [5]; 77.7 mg/dL in assay [6]. In addition, the Activity in assay [8] was 83 mg/dL. The Ratio in assay [7] is given as 1.9.

Take `Cc1nc2cc(O)ccc2c(=O)n1-c1ccc(OCC(=O)O)cc1`: the Activity came to 37.7 mg/dL in assay [1]; 261.7 g in assay [2]; 47.05 mg/dL in assay [3]; 116.8 mg/dL in assay [4]; 40.5 mg/dL in assay [5]; 77 mg/dL in assay [6]. In addition, the Activity in assay [8] is 85.3 mg/dL. For the same compound, the Ratio in assay [7] is given as 1.88.

As for `Cc1nc2ccccc2c(=O)n1-c1ccc(OCC(=O)O)cc1`, the Activity in assay [1] is 34.89 mg/dL; in assay [2], 273.85 g; in assay [3] it was 47.66 mg/dL; in assay [4] it was 117.1 mg/dL; in assay [5] it was 39.1 mg/dL; in assay [6], 78.5 mg/dL. Besides, the Activity in assay [8] amounted to 91.8 mg/dL. The Ratio in assay [7] is given as 1.99.

With `CC1N(c2ccc(OCC(=O)O)cc2)C(=O)c2ccccc2N1c1ccccc1` (configuration not stated), the Activity turned out to be 12.21 mg/dL in assay [1]; 274.7 g in assay [2]; 70.91 mg/dL in assay [3]; 158.8 mg/dL in assay [4]; 41.4 mg/dL in assay [5]; 108.9 mg/dL in assay [6]. Also, the Activity in assay [8] is 114.1 mg/dL. Besides, the Ratio in assay [7] is given as 2.67.
